In PubChem BioAssay (NCI):
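Grown in 96-well plates, cells were treated for 48 hours with each compound at five concentrations. Insufficient inhibition: endpoint recorded as highest concentration tested. TGI: total growth inhibition.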

Key:
Experiment in all cases: NCI anticancer screen, dose series, 48 h
[1] = system: RXF 393 renal
[2] = system: SR leukemia
[3] = system: HT29 colon
[4] = system: SN12C renal
[5] = system: BT-549 breast
[6] = system: 786-0 renal
[7] = system: A549 NSCLC
[8] = system: MDA-MB-231 breast
[9] = system: COLO 205 colon
[10] = system: NCI-H23 lung
[11] = system: NCI-H226 lung
[12] = system: EKVX NSCLC
[13] = system: LOX IMVI melanoma
[14] = system: MALME-3M melanoma
[15] = system: TK-10 renal
[16] = system: UACC-257 melanoma
[17] = system: UO-31 renal
[18] = system: MOLT-4 leukemia
[19] = system: SF-268 CNS
[20] = system: SW-620 colon
[21] = system: CCRF-CEM leukemia
[22] = system: IGROV1 ovarian
[23] = system: T-47D breast
[24] = system: PC-3 prostate
[25] = system: OVCAR-8 ovarian
[26] = system: M14 melanoma
[27] = system: MCF7 breast
[28] = system: MDA-N
[29] = system: HOP-62 NSCLC
[30] = system: ACHN renal
[31] = system: KM12 colon
[32] = system: SK-MEL-28 melanoma
[33] = system: CAKI-1 renal
[34] = system: NCI-H522 lung
[35] = system: HCC-2998 colon
[36] = system: HCT-116 colon
[37] = system: SNB-19 CNS
[38] = system: NCI-H460 lung
[39] = system: OVCAR-3 ovarian
[40] = system: U251 CNS
[41] = system: SF-295 CNS
[42] = system: DU-145 prostate
[43] = system: OVCAR-5 ovarian
[44] = system: NCI/ADR-RES ovarian
[45] = system: SK-MEL-2 melanoma
[46] = system: OVCAR-4 ovarian
[47] = system: SF-539 CNS
[48] = system: HS 578T breast
[49] = system: A498 renal
[50] = system: K-562 leukemia
[51] = system: HOP-92 NSCLC
[52] = system: HCT-15 colon
[53] = system: HL-60(TB) leukemia
[54] = system: SK-OV-3 ovarian
[55] = system: SK-MEL-5 melanoma
[56] = system: RPMI-8226 leukemia
[57] = system: UACC-62 melanoma
[58] = system: MDA-MB-435
[59] = system: SNB-75 CNS

Structure (SMILES): COc1cc(C2CC(C)(N3CCCC3)Oc3cc4c(cc32)OCO4)cc(OC)c1OC (stereo not given)
- TGI [1]: 0.468 µM
- TGI [2]: > 100 µM
- TGI [3]: 0.492 µM
- TGI [4]: 43.7 µM
- TGI [5]: 87.7 µM
- TGI [6]: 17 µM
- TGI [7]: > 100 µM
- TGI [8]: 21.9 µM
- TGI [9]: > 100 µM
- TGI [10]: > 49.6 µM
- TGI [11]: > 82.4 µM
- TGI [12]: > 100 µM
- TGI [13]: 15 µM
- TGI [14]: > 50.7 µM
- TGI [15]: > 64 µM
- TGI [16]: 32.5 µM
- TGI [17]: > 100 µM
- TGI [18]: > 49.3 µM
- TGI [19]: > 87.6 µM
- TGI [20]: 39 µM
- TGI [21]: > 100 µM
- TGI [22]: > 51.2 µM
- TGI [23]: > 100 µM
- TGI [24]: 3.55 µM
- TGI [25]: > 44.7 µM
- TGI [26]: > 100 µM
- TGI [27]: 17.9 µM
- TGI [28]: 0.0552 µM
- TGI [29]: > 100 µM
- TGI [30]: > 100 µM
- TGI [31]: > 100 µM
- TGI [32]: 73.8 µM
- TGI [33]: > 100 µM
- TGI [34]: 2.19 µM
- TGI [35]: 6.14 µM
- TGI [36]: > 100 µM
- TGI [37]: > 100 µM
- TGI [38]: 3.5 µM
- TGI [39]: 45 µM
- TGI [40]: 16.4 µM
- TGI [41]: 0.0909 µM
- TGI [42]: > 100 µM
- TGI [43]: > 100 µM
- TGI [44]: > 100 µM
- TGI [45]: > 100 µM
- TGI [46]: > 100 µM
- TGI [47]: 0.603 µM
- TGI [48]: > 100 µM
- TGI [49]: 6.12 µM
- TGI [50]: 10.9 µM
- TGI [51]: > 100 µM

Structure (SMILES): C[C@]12CC[C@@H]3c4ccc(OS(N)(=O)=O)cc4CC[C@H]3[C@@H]1CCC2=O
- TGI [1]: > 100 µM
- TGI [3]: > 100 µM
- TGI [4]: > 100 µM
- TGI [5]: > 100 µM
- TGI [6]: > 100 µM
- TGI [7]: > 100 µM
- TGI [8]: > 100 µM
- TGI [9]: > 100 µM
- TGI [10]: > 100 µM
- TGI [11]: > 100 µM
- TGI [12]: > 100 µM
- TGI [13]: > 100 µM
- TGI [14]: > 100 µM
- TGI [52]: > 100 µM
- TGI [15]: > 100 µM
- TGI [53]: > 100 µM
- TGI [16]: > 100 µM
- TGI [17]: > 100 µM
- TGI [19]: > 100 µM
- TGI [20]: > 100 µM
- TGI [54]: > 100 µM
- TGI [21]: > 100 µM
- TGI [55]: 38.8 µM
- TGI [22]: > 100 µM
- TGI [56]: > 100 µM
- TGI [23]: > 100 µM
- TGI [57]: > 100 µM
- TGI [25]: > 100 µM
- TGI [26]: > 100 µM
- TGI [27]: > 100 µM
- TGI [28]: > 100 µM
- TGI [29]: > 100 µM
- TGI [30]: > 100 µM
- TGI [31]: > 100 µM
- TGI [32]: > 100 µM
- TGI [33]: > 100 µM
- TGI [58]: > 100 µM
- TGI [35]: > 100 µM
- TGI [36]: > 100 µM
- TGI [37]: > 100 µM
- TGI [38]: > 100 µM
- TGI [39]: > 100 µM
- TGI [40]: > 100 µM
- TGI [41]: > 100 µM
- TGI [42]: > 100 µM
- TGI [43]: > 100 µM
- TGI [44]: > 100 µM
- TGI [59]: > 100 µM
- TGI [45]: > 100 µM
- TGI [46]: > 100 µM
- TGI [47]: > 100 µM
- TGI [48]: > 100 µM
- TGI [49]: > 100 µM
- TGI [50]: > 100 µM
- TGI [51]: > 100 µM

Structure (SMILES): O=S(=O)(/N=C(\NO)Nc1ccc(Cl)cc1)c1cc2ccccc2o1
- TGI [1]: 95 µM
- TGI [3]: 47.2 µM
- TGI [4]: 36.1 µM
- TGI [5]: 34.8 µM
- TGI [6]: 39.3 µM
- TGI [7]: > 100 µM
- TGI [8]: 40.9 µM
- TGI [9]: 51.1 µM
- TGI [10]: 48 µM
- TGI [11]: 71.7 µM
- TGI [12]: 41.9 µM
- TGI [13]: 23.9 µM
- TGI [14]: 45.2 µM
- TGI [52]: 34.2 µM
- TGI [15]: > 100 µM
- TGI [53]: 37.5 µM
- TGI [16]: 51.7 µM
- TGI [17]: 91.2 µM
- TGI [18]: > 100 µM
- TGI [19]: 55.7 µM
- TGI [20]: 65.1 µM
- TGI [54]: 62.3 µM
- TGI [21]: 57.4 µM
- TGI [55]: 30.9 µM
- TGI [22]: 30.7 µM
- TGI [23]: > 100 µM
- TGI [24]: 69 µM
- TGI [57]: 29.3 µM
- TGI [25]: 39.8 µM
- TGI [26]: 49.6 µM
- TGI [28]: 59.6 µM
- TGI [29]: 83 µM
- TGI [30]: 46.1 µM
- TGI [31]: 33.5 µM
- TGI [32]: 35 µM
- TGI [33]: 36.7 µM
- TGI [34]: 25.7 µM
- TGI [58]: 29.7 µM
- TGI [36]: 24.8 µM
- TGI [37]: > 100 µM
- TGI [38]: > 100 µM
- TGI [39]: 28.5 µM
- TGI [40]: 33.4 µM
- TGI [41]: 47 µM
- TGI [42]: > 100 µM
- TGI [43]: 57.2 µM
- TGI [44]: 55.1 µM
- TGI [59]: > 100 µM
- TGI [45]: 35.9 µM
- TGI [46]: 56 µM
- TGI [47]: > 100 µM
- TGI [48]: 52.8 µM
- TGI [50]: > 100 µM
- TGI [51]: 29 µM
